The compounds below were run against GABA-A receptor; anion channel (Homo sapiens) (UniProt P14867+P47870+P18507+P28472+P48169+Q99928+Q9UN88+P34903+O00591+O14764+Q8N1C3+P18505+P78334+P47869+P31644+Q16445) (assay: Gamma-aminobutyric acid A receptor modulating activity (expressed as biological activity).).
Type: protein-complex assay

BA | SMILES
47 | O=C1C[C@H](NC(=O)OCc2ccccc2)CO1
73 | C=CC[C@H]1C(=O)OC[C@H]1NCc1ccccc1
330 | CCCC1(CCC)C(=O)OC[C@H]1NC(=O)Oc1ccccc1
420 | CCCC1(CCC)C(=O)OC[C@H]1NC(=O)c1ccccc1
115 | C=CCC1(CC=C)C(=O)OC[C@H]1NCc1ccccc1
279 | CCCC1(CCC)C(=O)OCC1NC(=O)OCc1ccccc1 (single isomer, unassigned)
-1 | C=CC[C@@H]1C(=O)OC[C@H]1NCc1ccccc1
104 | CCCC1(CCC)C(=O)OC[C@H]1NC(=O)OCc1ccccc1
4 | CCCC1(CCC)C(=O)OC[C@H]1NS(=O)(=O)c1ccc2ccccc2c1

The next lines start with the compound.

SMILES | BA
O=C1C[C@H](NCc2ccccc2)CO1 | 0
CCCC1(CCC)C(=O)OC[C@H]1NS(=O)(=O)N(C)C | -1
CCCC1(CCC)C(=O)OC[C@H]1NC(=O)OC(C)(C)C | 46
CCCC1(CCC)C(=O)OC[C@H]1NS(=O)(=O)c1ccc(OC)cc1 | -22
CCCC1(CCC)C(=O)OC[C@H]1NS(=O)(=O)c1ccc(Cl)cc1 | 23
CCCC1(CCC)C(=O)OC[C@H]1NS(=O)(=O)c1ccc(C(F)(F)F)cc1 | -44
CCCC1(CCC)C(=O)OC[C@H]1NC(=O)OCC | 426
CCCC1(CCC)C(=O)OC[C@H]1NS(=O)(=O)c1cccs1 | -16
C=CCOC(=O)N[C@@H]1COC(=O)C1(CCC)CCC | 765
